In patent US11850237B2, “Compounds and methods for treating influenza” (priority 2009, dated 2023):
Values after ≈ are worked out from the molar mass of the structure shown. Read-outs that look alike come from different tables or passages of the source.

Assays:
[1] = tested on: Respiratory syncytial virus; assay: Activity against other respiratory viruses: Respiratory syncytial virus; format: cell-based; conditions: human respiratory syncytial virus
[2] = Double-blind placebo controlled trials in influenza-like illness; format: in vivo, human
Experimental: Evaluation of the effect of twice daily nitazoxanide for 5 days on the duration of symptoms in pediatric patients and adults with influenza-like illnesses was conducted. Two double-blind placebo controlled trials were conducted. Children 12 months-11 years of age were given NTZ suspension (n=100, 50 per group) and Patients ≥12 years of age were given NTZ 500 mg tablets (n=86, 43 per group). Single center trials were conducted. Studies were based on TAMIFLU® trials. The trials followed specific Inclusion/exclusion criteria. Inclusion required children age 1-11 years of patients ≥12 years of age with a fever >100° F. with ≥1 respiratory symptom (including cough, nasal discharge, sneezing, sore throat, etc.) and/or with ≥1 constitutional symptom (myalgia, malaise, fatigue, headache, chills/sweat, etc.). Major exclusions included symptom duration ≥72 hours, pregnancy or breastfeeding, concurrent antibiotics/antiviral medication, or a history of asthma or other pulmonary disease.
Patients were randomized to receive NTZ or placebo b.i.d. for 5 days. Nasopharyngeal swab collected at baseline for rapid direct immunofluorescence assay (SimulFluor respiratory Screen) for 7 viruses (RSV, Influenza A & B, Parainfluenza 1-3, and Adenovirus). Symptoms recorded in a daily diary by the patient (or parent) with each symptom graded on a scale of 0 to 3: absent, mild, moderate, severe. Tissue was stored in a ziplock plastic bag and collected daily by study personnel for weighing. A follow up physical examination was conducted on day 7. The primary endpoint was the time from baseline to each symptom returning to absent or mild (<2). Secondary endpoints include antibiotic use, day 7 respiratory symptoms, daily tissue/mucus weight.

[3] = tested on: H5N9 low-pathogenicity avian strain A/Ck/It/9097/97 (A/Ck); assay: microbe, parasite or virus in culture; format: cell-based; conditions: Influenza A virus, H5N9, MDCK, 24 h, read-out: EC50, inhibition of virus replication
influenza = assay: Clinical trials, treatment of influenza; format: in vivo, human; conditions: orally 300 mg or 600 mg twice daily for 5 days
Experimental: Low dose administration of thiazolides such as NTZ to treat virus infection. NTZ can be administered orally at a dose of 300 mg or 600 mg twice daily for 5 days as a treatment of influenza. […] Preferably, the dosage of nitazoxanide is 300 mg twice daily for 5 days, which is less than the dosage of NTZ needed to treat intestinal infections, thereby enabling a reduction of side effects associated with higher dosages. Thiazolides can also be administered as a modified release bi-layer tablet. As such, thiazolides can be administered in 100 mg, 200 mg, 300 mg, 400 mg, 500 mg or 600 mg doses twice daily for 5 days to treat virus infection.

MDCK cells [4] = assay: Toxicity / cell viability by MTT in uninfected MDCK cells; format: cell-based, canine; conditions: MDCK cells, MTT
Experimental: (§1) Cell culture, treatment and transfection-Madin-Darby canine kidney (MDCK) cells, and human A549 alveolar type II-like epithelial, Jurkat Tlymphoblastoid and U397 monocytic leukemia cells were grown at 37° C. in a 5% CO2 atmosphere in RPMI 1640 (Invitrogen), supplemented with 10% fetal calf serum (FCS), 2 mM glutamine and antibiotics. Test compounds were added immediately after 1-hour adsorption period, and kept in the culture medium for the entire time of the experiment, unless differently specified. […] Cell viability was determined by the 3-(4,5-dimethylthiazol-2-yl)-2,5-diphenyltetrazolium bromide (MTT) to MTT formazan conversion assay (Sigma-Aldrich) as described previously. Microscopical examination of mock-infected or virus-infected cells was performed using a Leica DM-IL microscope and images were captured on a Leica DC 300 camera using Leica Image-Manager500 software.

[5] = as above; format: cell-based, canine; conditions: dog, uninfected MDCK cells; uninfected cells
Experimental: as §1

Parainfluenza = assay: Activity against other respiratory viruses: Parainfluenza; format: cell-based
[6] = tested on: H1N1 A/PR/8/34 (PR8) virus; assay: microbe, parasite or virus in culture; format: cell-based, influenza A virus; conditions: for EC50: Influenza A virus, MDCK, 24 h; for PR8 Yield: no zanamivir (Control)
Rhinovirus = assay: Activity against other respiratory viruses: Rhinovirus; format: cell-based, human rhinovirus; conditions: Enterovirus
[7] = Cytotoxicity (CC50) in the other respiratory virus assays
[8] = tested on: H1N1 A/PR/8/34 (PR8) virus; assay: microbe, parasite or virus in culture; format: cell-based, influenza A virus; conditions: Influenza A virus, MDCK, 24 h
[9] = tested on: viral hemagglutinin (HA0); format: cell-based, influenza A virus; conditions: for HA0 maturation in other host cells and strains: WSN in A549 cells, A/Ck and PR8 in MDCK cells
Adenovirus = assay: Activity against other respiratory viruses: Adenovirus; format: cell-based; conditions: unidentified adenovirus
H1N1 A/PR/8/34 (PR8) = assay: microbe, parasite or virus in culture; format: cell-based, influenza A virus; conditions: for EC50 / EC90: Influenza A virus; for EC90: read-out: Virus Yield EC90; for antiviral activity against PR8, overall rating: PR8 influenza A virus, Table 1
A/WSN/33 (WSN) = assay: microbe, parasite or virus in culture; format: cell-based; conditions: Influenza A virus, MDCK, 24 h, read-out: EC50, inhibition of virus replication
Coronavirus = assay: Activity against other respiratory viruses: Coronavirus; format: cell-based
[10] = tested on: human low-density lipoprotein receptor (LDLR); assay: Plasma membrane targeting of LDLR in transfected MDCK cells; format: cell-based; conditions: LDLR-A18-GFP transfected MDCK cells, TIZ 10 μg/ml for 16 h
Text: For transfection experiments, MDCK cells plated in LabTekII coverglass chambers (Nunch-Thermo Fisher Scientific Inc.) were transiently transfected with green fluorescent protein (GFP)-tagged internalization-defective human low-density lipoprotein receptor (hLDLR) mutant (LDLR-A18-GFP plasmid, kindly provided by E. Rodriguez-Boulan, Cornell University New York, NY), using Lipofectamine 2000 (Invitrogen) according to the manufacturer's instructions.
For detection of plasma membrane targeting of human low-density lipoprotein receptor (hLDLR), MDCK cells plated in coverglass chambers were transiently transfected with GFPtagged internalization-defective hLDLR mutant (LDLR-A18-GFP plasmid) and, after 8 h, treated with TIZ (10 μg/ml) or vehicle for the following 16 h. After blocking protein synthesis with 100 μg/ml cycloheximide (Sigma-Aldrich) for 1 h, plasma membranes were stained using CellMask™ Orange plasma membrane stain (Molecular Probes, Invitrogen). After staining, cells were examined using a Leica DM-IL fluorescence microscope equipped with UV excitation filters. The images were captured with a Leica DC-300 camera using Leica Image-Manager500 software.

[11] = tested on: H3N2 A/Firenze/7/03 (A/FI); format: cell-based, influenza A virus; conditions: MDCK cells, 10 μg/ml TIZ
[12] = tested on: influenza A virus (PR8 in U937 and Jurkat, WSN in A549 cells); assay: Influenza A virus replication in human cells (U937, Jurkat, A549); format: cell-based; conditions: monocytic U937, T-lymphocytic Jurkat and alveolar type II-like A549 cells, read-out: EC50, inhibition of influenza A virus replication in human cells
[13] = tested on: influenza B virus, B/Parma/3/04; format: cell-based; conditions: B/Parma/3/04 influenza B, MDCK cells, 10 μg/ml TIZ
PR8 virus = format: cell-based, influenza A virus
MDCK cells [14] = assay: Host protein synthesis, eIF2α phosphorylation and Grp78/BiP in MDCK cells; format: cell-based, canine
Experimental: Metabolic labeling, analysis of protein synthesis and Western Blot Mock-infected or influenza virus-infected cells were labeled with 10 μCi/ml of [35S]-methionine-cysteine ([35S]-Met/Cys, Redivue Pro-Mix 35S in vitro cell-labeling mix; GE Healthcare) for the indicated times after 30 min. starvation in methionine/cysteine-free medium. For pulse/chase experiments, cells were labeled [35S]-Met/Cys (100 μCi/ml) for 15 min., after 30 min. starvation in methionine/cysteine-free medium. At the end of pulse, cells were chased in complete medium containing 10 mM cold methionine and 1 mM cycloheximide for different times in the absence or presence of TIZ. The pulse/chase were terminated by placing the cells on ice. After cell lysis in RIPA buffer (150 mM NaCl, 10 mM Tris-HCl pH 7.5, 4 mM EDTA, 1% Triton X-100, 600 mM KCl), containing 1 mM phenylmethylsulphonyl fluoride (PMSF) and a protease inhibitor cocktail (PIC; Roche Diagnostics GmbH), samples containing the same amount of radioactivity were separated by SDS/PAGE (3% stacking gel, 10% resolving gel) and processed for autoradiography, as described. Autoradiographic patterns were visualized and quantified in Typhoon-8600 Imager (Molecular Dynamics, Amersham Pharmacia Biotech) and images were acquired using ImageQuant software (Amersham Pharmacia Biotech) (MDP analysis).
For Western blot analysis, cells were lysed with cold high-salt extraction (HSB) buffer containing 2 mM dithiothreitol (DTT), 1 mM PMSF, 1 mM orthovanadate, 20 mM β-glycerophosphate, 1 mM p-nitrophenyl phosphate (pNPP) and PIC, or with RIPA buffer, containing 1 mM PMSF and PIC. […] Quantitative evaluation of proteins was determined by Versadoc-1000 analysis using the Quantity One software program, available through BIO-RAD Laboratories.

[15] = target: viral hemagglutinin (HA0) (Influenza A virus, UniProt P03452); format: cell-based
Chain of viral hemagglutinin (HA0) (Influenza A virus, UniProt P03452) (P03452 18-565 limits assumed): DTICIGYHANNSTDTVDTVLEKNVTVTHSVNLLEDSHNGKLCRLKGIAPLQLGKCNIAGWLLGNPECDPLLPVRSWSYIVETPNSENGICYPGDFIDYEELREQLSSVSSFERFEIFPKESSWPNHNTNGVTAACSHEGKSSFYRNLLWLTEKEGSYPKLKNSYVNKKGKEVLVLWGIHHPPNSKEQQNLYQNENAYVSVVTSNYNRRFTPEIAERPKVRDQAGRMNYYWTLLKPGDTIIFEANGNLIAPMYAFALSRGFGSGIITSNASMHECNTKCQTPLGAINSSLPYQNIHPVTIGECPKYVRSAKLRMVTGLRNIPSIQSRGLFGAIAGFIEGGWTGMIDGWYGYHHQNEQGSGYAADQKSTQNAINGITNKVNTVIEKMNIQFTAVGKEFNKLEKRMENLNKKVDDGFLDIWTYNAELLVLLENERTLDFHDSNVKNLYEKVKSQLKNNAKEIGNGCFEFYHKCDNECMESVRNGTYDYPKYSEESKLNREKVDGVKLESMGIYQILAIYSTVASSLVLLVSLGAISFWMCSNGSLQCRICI

[16] = MDCK, 24 h, read-out: EC50, inhibition of virus replication
[17] = PR8, MDCK cells, read-out: Virus Yield EC50

## CC(=O)Oc1ccccc1C(=O)Nc1ncc([N+](=O)[O-])s1 [Compound 1, nitazoxanide]
[1]
  EC50: 0.5 µg/mL (≈ 1.63 µM)
[2]; influenza-like illness, FIG. 13
  respiratory symptoms, Day 7 Physical Exam: reduces respiratory symptoms
[2]; subjects not positive for Adenovirus, RSV, Influenza A, Parainfluenza 1, FIG. 12
  resolution of symptoms associated with influenza-like illness: can resolve symptoms
[2]; twice daily for 5 days vs placebo, patients mostly negative for Adenovirus, RSV, Influenza A, Parainfluenza 1
  treatment of patients with influenza like illness: has the ability to treat patients
[3]
  EC50: 1 µg/mL (≈ 3.25 µM)
influenza
  treatment of influenza in clinical trials: has the ability to treat influenza
MDCK cells [4]
  Toxicity LD50 (MTT): >50 µg/mL
[5]
  CC50: > 50 µg/mL
Parainfluenza
  EC50: 0.5 µg/mL (≈ 1.63 µM)
[6]; read-out: EC50 of NTZ in the experiments with zanamivir
  EC50: 0.66 µg/mL
[6]; read-out: EC50 of NTZ in the experiments with zanamivir (molar equivalent)
  EC50: ~2.2 µM
[6]; Nitazoxanide 0.1 μg/ml
  PR8 Yield: 48 HAU/ml
[6]; Nitazoxanide 1 μg/ml
  PR8 Yield: 16 HAU/ml
Rhinovirus
  EC50: > 10 µg/mL
[7]
  CC50: > 50 µg/mL
[7]; Adenovirus line of Table 3
  CC50: >50 µg/mL
[7]; Coronavirus line of Table 3
  CC50: >50 µg/mL
[7]; Respiratory syncytial virus line of Table 3
  CC50: >50 µg/mL
[7]; Rhinovirus line of Table 3
  CC50: >50 µg/mL
[8]; read-out: EC50 of NTZ in the experiments with oseltamivir
  EC50: 1 µg/mL
[8]; read-out: EC50 of NTZ in the experiments with oseltamivir (molar equivalent)
  EC50: 3.3 µM
[9]
  HA0 maturation in other host cells and strains: caused similar alterations
Adenovirus
  EC50: 0.2 µg/mL (≈ 0.651 µM)
H1N1 A/PR/8/34 (PR8); [16]
  EC50: 1 µg/mL
H1N1 A/PR/8/34 (PR8); MDCK, PR8 virus, separate studies, read-out: EC50 (molar equivalent)
  EC50: 3.3 µM
H1N1 A/PR/8/34 (PR8); [17]
  EC50: 1 µg/mL
H1N1 A/PR/8/34 (PR8); PR8, MDCK cells
  EC90: 7 µg/mL (≈ 22.8 µM)
H1N1 A/PR/8/34 (PR8)
  antiviral activity against PR8, overall rating: potent and selective
A/WSN/33 (WSN)
  EC50: 0.5 µg/mL (≈ 1.63 µM)
Coronavirus
  EC50: 1 µg/mL (≈ 3.25 µM)

## O=C(Nc1ncc([N+](=O)[O-])s1)c1ccccc1O [Compound 2, tizoxanide]
[10]
  plasma membrane targeting of LDLR: did not inhibit plasma membrane targeting of LDLR
[3]
  EC50: 0.5 µg/mL (≈ 1.89 µM)
[11]
  inhibition of virus replication: very effective
MDCK cells [4]
  Toxicity LD50 (MTT): >50 µg/mL
[5]
  CC50: > 50 µg/mL
[12]
  EC50: 0.3 µg/mL (≈ 1.13 µM)
[13]
  inhibition of virus replication: very effective
PR8 virus
  effect on influenza virus replication: had no effect
PR8 virus; single administration after virus adsorption, 10 μg/ml, PR8, MDCK cells
  time after infection for which a single administration inhibits virus replication: at least 48 h
PR8 virus; treatment of cells only during the adsorption period
  effect on virus replication: did not inhibit virus replication
MDCK cells [14]; MDCK cells
  expression of Grp78/BiP (unfolded protein response marker): did not induce the expression
MDCK cells [14]; [35S]-Met/Cys incorporation, 10 μg/ml TIZ
  host protein synthesis: did not inhibit host protein synthesis
MDCK cells [14]; uninfected or PR8-infected cells
  phosphorylation of eukaryotic initiation factor 2α (eIF2-α): did not affect phosphorylation
[15]
  Endo-H sensitivity of HA0: remained sensitive to digestion
  HA0 glycosylation (glucosamine, mannose incorporation): did not decrease glucosamine and actually increased mannose incorporation
  HA0 trimer formation: did not prevent HA0 ability to form trimers
  change in influenza virus protein synthesis pattern (HA0 band): disappearance of a band of approximately 79 kDa
  intracellular HA0 levels / accumulation: did not reduce intracellular HA0 levels
  plasma membrane levels of viral hemagglutinin: dramatically decreased
[9]; PR8-infected cells, 24 h p.i.
  viral proteins in purified virions from supernatant: could not be detected
[9]
  HA0 maturation in other host cells and strains: able to inhibit HA0 maturation
H1N1 A/PR/8/34 (PR8); H1N1 PR8, MDCK cells, 10 μg/ml TIZ, m.o.i. 10 or 0.001 ffu/cell
  effect on virus replication under multi- and single-step virus growth: dramatic block
H1N1 A/PR/8/34 (PR8); [16]
  EC50: 1 µg/mL
H1N1 A/PR/8/34 (PR8); [17]
  EC50: 1 µg/mL
H1N1 A/PR/8/34 (PR8); PR8, MDCK cells
  EC90: 9 µg/mL (≈ 33.9 µM)
H1N1 A/PR/8/34 (PR8)
  antiviral activity against PR8, overall rating: potent and selective
A/WSN/33 (WSN)
  EC50: 0.5 µg/mL (≈ 1.89 µM)
